How the values were obtained:
[1] = test system: Wistar normal rats with electroshock induced seizures; assay: Maximum electroshock screening (MES), blockade of hindlimb extension; assay type: in vivo, rat
Protocol: Comparison of the Anticonvulsant Effect of Free Benzaldehyde Semicarbazone (BS) and the BS/HP-β-CD and BS/β-CD Pharmaceutical Compositions in Wistar Normal Rats with Electroshock Induced Seizures (Maximum Electroshock Screening, MES)
Wistar rats from the main breeding stock of the Institute of Biological Sciences, Federal University of Minas Gerais, Brazil, maintained at the animal facilities of the Physiology Department, weighing 250-300 g, were used. They were kept at 24° C., in groups of 5 per cage receiving chow pellets and water ad libitum. The light/dark cycle was 12 h:12 h, with lights on at 7:00 am and lights off at 7:00 pm. Efforts were made in order to avoid any unnecessary distress to the animals, in accordance to the Guidelines for Animal Experimentation of Federal University of Minas Gerais, Brazil.
Electroshock seizures were induced by electric stimulus, produced by an ELEKTROSCHOCKGERAT apparatus (Karl Kolbe, Scientific Technical Supplies, Frankfurt, Germany) using a current of 70 mA, 60 Hz, during 1 second through a pair of ear clip electrodes.
The behavioral evaluation was carried out by analyzing the tonic component in a four points scale as follows: 0=no seizure; 1=forelimb extension without hind limb extension; 2=complete forelimb extension and partial hind limb extension; 3=complete hind limb extension, which stays parallel to the tail. To evaluate the effect of decreasing on electroshock induced seizures severity, it was taken as criteria the blockade of complete fore- and hind limb extension (score≦1).

[2] = test system: Wistar Audiogenic Rats (WAR) with audiogenic seizures; assay: Audiogenic seizures (AS) in Wistar Audiogenic Rats, blockade of tonic component; assay type: in vivo, rat
Source text: Comparison of the Anticonvulsant Effect of Free Benzaldehyde Semicarbazone (BS) and the HP-β-CD/BS Pharmaceutical Composition in Wistar Audiogenic Rats (WAR) with Audiogenic Seizures (AS). Typically WARs Present Running Fits, Jumping, Atonic Falling Followed by Tonic-Clonic Seizures and Clonic Spasms when Submitted to High Intensity Sound Stimulus (120 dB SPL)
Female Wistar Audiogenic Rats (WARs) from our own inbred colony, maintained at the animal facilities of the Physiology Department of Federal University of Minas Gerais, Brazil, weighing 250-300 g, were used. They were kept at 24° C., in groups of 5 per cage receiving chow pellets and water ad libitum. The light/dark cycle was 12 h:12 h, with lights on at 7:00 am and lights off at 7:00 pm. Efforts were made in order to avoid any unnecessary distress to the animals, in accordance to the Guidelines for Animal Experimentation of Federal University of Minas Gerais, Brazil.
Audiogenic seizures (AS) were induced by a sound stimulus (120 dB) delivered into an acoustic chamber through a loud speaker, until tonic seizures appeared, or during a maximum of 1 minute. Behavior was evaluated by a severity index (SI) ranging from SI=0.0 to SI=1.0 (maximum).
Typically WARs present running fits, jumping and atonic falling followed by tonic-clonic seizures and clonic spasms (SI≧0.85). Animals were stimulated three times, once every three days before the beginning of experiments, in order to screen them for seizure severity (control recording). Seven days after the third stimulation they were used in the experiments. To evaluate the effect of decreasing on AS severity, it was taken as criteria the blockade of the tonic component of seizure, which means to obtain SI<0.61.

motor activity of mice = assay: Motor activity in rota-rod apparatus; assay type: in vivo; settings: 10, 25 or 50 mg/kg i.p.; 30 min after injection; 14 rpm, cut-off 1 min
Protocol: The effect of BS on the motor activity of mice was evaluated in order to investigate if inhibition of the nociceptive behavior in animals treated with BS would not be the result of a central depressor effect. The motor activity was evaluated in a rota-rod apparatus. During the experiment, the mice were placed on the rota-rod (14 rpm) and the time they spent in the apparatus was determined. The cut-off time was 1 min. After the basal lecture, the animals were treated with BS (10, 25 or 50 mg/kg, intraperitoneal; i.p.). The vehicle used was 25% dimethylsulphoxide (DMSO)+10% tween 80 in saline. Thirty minutes after the injection, the time spent in the rota-rod was determined again.

[3] = test system: nociceptive response induced by formaldehyde in mice; assay: Licking behavior induced by formaldehyde; assay type: in vivo
Protocol: In the first model, licking behaviour induced by formaldehyde (0.92%, 20 μL), the inflammatory stimulus is injected into the dorsum of the right hindpaw of mice. Immediately after the injection, the animals present a nociceptive behaviour characterized by licking and biting the injected paw. The licking time is determined between 0 and 5 min and 15 and 30 min after formaldehyde injection. The first phase results from direct activations of primary afferent fibers and is inhibited mainly by centrally acting drugs such as the opioid analgesics. The second phase is associated with the development of an inflammatory response and facilitation of synaptic transmission in the spinal cord.
In the model of licking behavior induced by formaldehyde, the inflammatory stimulus (0.92%, 20 μL) is injected into the dorsum of the right hindpaw of mice. Immediately after the injection, the animals present a nociceptive behaviour characterized by licking and biting the injected paw. The licking time is determined between 0 and 5 min (first phase) and 15 and 30 min (second phase) after formaldehyde injection. The first phase of the nociceptive response induced by formaldehyde in mice was inhibited by the highest dose of BS (50 mg/kg, i.p.).

[4] = test system: thermal allodynia induced by carrageenan in Wistar male rats; assay: Thermal allodynia induced by carrageenan; assay type: in vivo, rat; settings: only at 50 mg/kg i.p., -1 h (10, 25, 50 mg/kg tested)
Protocol: In the model of thermal allodynia, the right hindpaw withdrawal latency to a thermal stimulus (Hargreaves apparatus—Ugo Basile, Italy) is determined in rats before the administration of any drug. The intensity of the thermal stimulus is adjusted to induce a basal latency about 12 s. After the basal lecture, carrageenan (1%, 50 μL) is injected into the right hindpaw. This inflammatory stimulus reduces the latency for paw withdrawal induced by the thermal stimulus, which is characterized as thermal allodynia.
In the model of thermal allodynia, the right hindpaw withdrawal latency to a thermal stimulus (Hargreaves apparatus—Ugo Basile, Italy) is determined in rats before the administration of any drug. The intensity of the thermal stimulus is adjusted to induce a basal latency about 12 s. After the basal lecture, carrageenan (1%, 50 μl) is injected into the right hindpaw. This inflammatory stimulus reduces the latency for paw withdrawal induced by the thermal stimulus, which is characterized as thermal allodynia.

[5] = test system: carrageenan-induced edema in rats; assay: Carrageenan-induced edema; assay type: in vivo, rat; settings: 10, 25 or 50 mg/kg i.p., -1 h
Protocol: To evaluate if a coupound presents antiedematogenic activity, the model of carrageenan-induced edema in rats was used. In this model, before the administration of any drug, the right hindpaw volume is determined with a plethysmomether. After the division of the groups, carrageenan (1%, 50 μL) is injected into the plantar surface. At different times after the injection of carrageenan, the paw volume is determined again. This inflammatory stimulus induces a marked edema that is inhibited by different anti-inflammatory drugs (steroid and non-steroid), inhibitors of nitric oxide synthesis and antagonists of histamine, 5-hydroxytryptamine and bradykinin, inhibitors of nitric oxide syntheses, etc.
To evaluate if BS presents antiedematogenic activity, the model of carrageenan-induced edema in rats was used. In this model, before the administration of any drug, the right hindpaw volume is determined with a plethysmomether. After the division of the groups, carrageenan (1%, 50 μl) is injected into the plantar surface. At different times after the injection of carrageenan, the paw volume is determined again.

[6] = test system: nociceptive response of mice on hot-plate (57° C.); assay: Hot-plate model; assay type: in vivo; settings: 10, 25 or 50 mg/kg i.p., -1 h
Protocol: In the hot-plate model, the mice are placed over a hot-plate (57° C.). The latency to jump or lick the paws is determined. In this model, direct and immediate activation of peripheral afferent fibbers occurs. Thus, drugs that act mainly in the central nervous system inhibit the nociceptive response in this model.
In the hot-plate model, the mice are placed over a hot-plate (57° C.). The latency to jump or lick the paws is determined. In this model, direct and immediate activation of peripheral afferent fibers occurs. Thus, drugs that act mainly in the central nervous system inhibit the nociceptive response in this model.

[7] = test system: angiogenesis induced by sponge implant in Swiss mice; assay: Angiogenesis induced by sponge implant, hemoglobin content (vascular index); assay type: in vivo; settings: for reduction in the hemoglobin content of implants: vs vehicle-treated group
Protocol: The experiments were performed in male, Swiss mice (20-30 g; 12 weeks old) from the Animal House of the Institute of Biological Sciences, Federal University of Minas Gerais. Polyether-polyurethane sponge discs 5 mm thickness and 10 mm diameter with central cannula, used as a framework to induce fibrovascular tissue growth, were introduced through a skin incision in the back of mice anesthetized with 2,2,2-tribromoethanol ([…]) [Machado, R. D. P., Santos, R. A. S., Andrade, S. P., Life Sciences 66, 67, 2000]. The animals were housed individually and provided with normal food and water. Housing and anesthesia concurred with the guidelines established by our local Institutional Animal Welfare Committee.
Four more doses were given in the subsequent days. The animals were killed by cervical dislocation 9 days after implantation. The implants were removed and processed for hemoglobin determination (vascular index) using a modified Drabkin's method [Plunkett, M. L., Haley, J. A., Lab. Invest. […] One group of animals received injection of vehicle.

Compound: NC(=O)NN=Cc1ccccc1 [BS, benzaldehyde semicarbazone]
- animals with hindlimb extension blocked ([1]; 100 mg/Kg ip and vo, males): about 90%
- animals in which active, 240 minutes after administration ([1]; 240 minutes after administration (vo)): no activity
- minimum dose necessary to produce anticonvulsant activity ([1]; ip): 100 mg/kg
- minimum dose necessary to produce anticonvulsant activity ([1]; vo): 100 mg/kg
- animals with tonic component of seizures blocked ([2]; 50 mg/Kg ip): 33%
- animals with tonic component of seizures blocked ([2]; 75 mg/Kg ip): 50%
- animals with tonic component of seizures blocked ([2]; 100 mg/Kg ip): 83%
- minimum dose necessary to produce anticonvulsant activity ([2]; vo and ip): 100 mg/kg
- time spent in the rota-rod (motor activity of mice): did not reduce the time spent in the rota-rod
- second phase of the nociceptive response (licking time 15-30 min) ([3]; all doses: 10, 25 and 50 mg/kg i.p., -1 h): markedly inhibited
- first phase of the nociceptive response (licking time 0-5 min) ([3]; highest dose, 50 mg/kg i.p.): inhibited
- nociceptive response in thermal allodynia (paw withdrawal latency) [4]: statistically inhibited
- carrageenan-induced edema (paw volume) [5]: inhibited the carrageenan-induced edema
- anti-nociceptive effect (latency to jump or lick the paws) [6]: did not exhibit anti-nociceptive effect
- reduction in the hemoglobin content of implants ([7]; 0.05 mg/kg ip, 9 days after implantation): unable to reduce the hemoglobin content
- reduction in the hemoglobin content of implants ([7]; the other doses (0.25, 0.5 and 2.5 mg/kg ip)): more than 50%

Compound: bromobenzaldehyde semicarbazone [BrBs]
- increase in hemoglobin content of implants ([7]; 0.25 mg/kg, relative to the control group): about 30%
- increase of hemoglobin content (vascular index), summary statement ([7]; dose not stated): more than 30%

— patent US20080058284A1, “Pharmaceutical compositions of semicarbazones and/or thiosemicarbazones and/or their derivatives and products of these compositions and their uses as anticonvulsant, anti-nociceptive and anti-inflammatory agents, and in the angiogenic therapy” (UNIVERSIDALE FEDERAL DE MINAS GERAIS, priority 2002, published 2008)
